# Measurements from the supplement of paper PMC10307832.
# Legend:
# Experiment in all cases: relative viability (nuclei count vs DMSO), 5 days (fraction); higher = more cells survive
# [1] = compound: C1CCC(CC1)N(CCNCCC2=C3C(=C(C=C2)O)NC(=O)CO3)C(=O)CCNCCC4=CC(=C(C=C4)Cl)Cl [AZ505] + CC(=O)Nc1cccc(-n2c(=O)n(C3CC3)c(=O)c3c(Nc4ccc(I)cc4F)n(C)c(=O)c(C)c32)c1 [Trametinib] (partner 0.02 µM)
# In short: (§1)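 Relative viability was taken as the ratio of nuclei in treated wells to nuclei in vehicle wells. Lung cancer cell lines in 1536-well plates received compounds by pin tool one day after seeding, either one drug alone or a fixed anchor-drug dose plus five library-drug doses (not always all listed) in √10 steps. Nuclei were counted on 4× images after 5 days of treatment, and values are medians of duplicate plates.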
# [2] = compound: Cn1c(=O)n(-c2ccc(C(C)(C)C#N)cc2)c2c3cc(-c4cnc5ccccc5c4)ccc3ncc21 [Dactolisib] + O=C(c1cc(Cc2n[nH]c(=O)c3ccccc23)ccc1F)N1CCN(C(=O)C2CC2)CC1 [Olaparib] (partner 8 µM)
# In short: as §1
# [3] = compound: Cn1c(=O)n(-c2ccc(C(C)(C)C#N)cc2)c2c3cc(-c4cnc5ccccc5c4)ccc3ncc21 [Dactolisib] + CS(=O)(=O)CCNCc1ccc(-c2ccc3ncnc(Nc4ccc(OCc5cccc(F)c5)c(Cl)c4)c3c2)o1 [Lapatinib] (partner 2 µM)
# In short: as §1
# [4] = compound: C1CCC(CC1)N(CCNCCC2=C3C(=C(C=C2)O)NC(=O)CO3)C(=O)CCNCCC4=CC(=C(C=C4)Cl)Cl [AZ505] + CS(=O)(=O)N1CCN(Cc2cc3nc(-c4cccc5[nH]ncc45)nc(N4CCOCC4)c3s2)CC1 [Pictilisib] (partner 1 µM)
# In short: as §1
cell line,measurement,setting,value
UMC-11,relative viability,[1]; first compound 0.08 µM,0.588
same,relative viability,[1]; first compound 0.253 µM,0.643
same,relative viability,[1]; first compound 0.8 µM,0.697
same,relative viability,[1]; first compound 2.53 µM,0.789
same,relative viability,[1]; first compound 8 µM,0.672
same,relative viability,[2]; first compound 0.002 µM,0.36
same,relative viability,[2]; first compound 0.006325 µM,0.317
same,relative viability,[2]; first compound 0.02 µM,0.306
same,relative viability,[2]; first compound 0.06325 µM,0.202
same,relative viability,[2]; first compound 0.2 µM,0.193
same,relative viability,[3]; first compound 0.002 µM,0.863
same,relative viability,[3]; first compound 0.006325 µM,0.788
same,relative viability,[3]; first compound 0.02 µM,0.78
same,relative viability,[3]; first compound 0.06325 µM,0.316
same,relative viability,[3]; first compound 0.2 µM,0.272
same,relative viability,[4]; first compound 0.08 µM,0.753
same,relative viability,[4]; first compound 0.253 µM,0.766
same,relative viability,[4]; first compound 0.8 µM,0.688
same,relative viability,[4]; first compound 2.53 µM,0.972
same,relative viability,[4]; first compound 8 µM,0.974
